The assay deals with carrageenin edema. Kind of assay: Carrageenin edema inhibition activity (for rats). It counts as in vivo. Particulars: Rattus norvegicus, ip; for inhibition in vivo at 50 mg/kg: 50 mg/kg i.p.; for inhibition in vivo at 100 mg/kg: 100 mg/kg i.p. The source says:
In Table 2 below, carrageenin edema inhibition activity (for rats) of representative compounds of the present invention is illustrated: […]
For orientation: Carrageenan injected into the paw causes an acute inflammation.

One may read the inhibition in vivo as the share of the control response that was lost under treatment.

On to `Nc1nc(NC(=O)c2cccnc2)nc(-c2ccc(Cl)cc2)n1` [Compound 1], for which the inhibition in vivo at 50 mg/kg was 56.8% and the inhibition in vivo at 100 mg/kg was 57.2%.

For the compound `Nc1nc(NC(=O)c2cccnc2)nc(-c2cccc(Cl)c2)n1` [Compound 2], the inhibition in vivo at 50 mg/kg worked out at 43.6% and 100 mg/kg produced 54.2% inhibition in vivo.

The compound `Nc1nc(NC(=O)c2cccnc2)nc(-c2ccccc2Cl)n1` [Compound 3] returned an inhibition in vivo at 50 mg/kg of 37.1% and an inhibition in vivo at 100 mg/kg of 45.5%.

As for `Nc1nc(NC(=O)c2cccnc2)nc(-c2ccc(Br)cc2)n1` [Compound 4], testing at 50 mg/kg gave an inhibition in vivo of 44.4% and the inhibition in vivo at 100 mg/kg turned out to be 49.3%.

As for `Nc1nc(NC(=O)c2cccnc2)nc(-c2cccc(Br)c2)n1` [Compound 5], the inhibition in vivo at 50 mg/kg is 41.9% and the inhibition in vivo at 100 mg/kg came to 40.2%.

The compound `Nc1nc(NC(=O)c2cccnc2)nc(-c2ccccc2I)n1` [Compound 9] had an inhibition in vivo at 50 mg/kg of 38.1% and an inhibition in vivo at 100 mg/kg of 40.5%.

For the compound `Nc1nc(NC(=O)c2cccnc2)nc(-c2ccc(F)cc2)n1` [Compound 10], the inhibition in vivo at 50 mg/kg turned out to be 53.8% and 100 mg/kg produced 56.1% inhibition in vivo.

`Nc1nc(NC(=O)c2cccnc2)nc(-c2cccc(F)c2)n1` [Compound 11]: at 50 mg/kg the inhibition in vivo was 49% and at 100 mg/kg the inhibition in vivo was 47.1%.

As to `Nc1nc(NC(=O)c2cccnc2)nc(-c2ccc(Cl)c(Cl)c2)n1` [Compound 13], at 50 mg/kg the inhibition in vivo was 40.9% and 100 mg/kg produced 49.2% inhibition in vivo.

In the case of `Nc1nc(NC(=O)c2cccnc2)nc(-c2cc(Cl)ccc2Cl)n1` [Compound 15], testing at 50 mg/kg gave an inhibition in vivo of 43.2% and testing at 100 mg/kg gave an inhibition in vivo of 54.5%.

`Nc1nc(NC(=O)c2cccnc2)nc(-c2cc(Cl)ccc2F)n1` [Compound 19] came in with an inhibition in vivo at 50 mg/kg of 34.2% and an inhibition in vivo at 100 mg/kg of 47.8%.

Take `Nc1nc(NC(=O)c2cccnc2)nc(-c2ccc(Cl)cc2F)n1` [Compound 20]: 50 mg/kg produced 42.7% inhibition in vivo and at 100 mg/kg the inhibition in vivo was 50.8%.

Consider `Nc1nc(NC(=O)c2cccnc2)nc(-c2cc(Br)ccc2Br)n1` [Compound 21], for which the inhibition in vivo at 50 mg/kg came out at 35.6% and the inhibition in vivo at 100 mg/kg amounted to 40.6%.

Compound `Nc1nc(NC(=O)c2cccnc2)nc(-c2cc(F)ccc2Cl)n1` [Compound 24] gave an inhibition in vivo at 50 mg/kg of 46.5% and an inhibition in vivo at 100 mg/kg of 45.1%.

In the case of `Nc1nc(NC(=O)c2cccnc2)nc(-c2cc(F)ccc2Br)n1` [Compound 25], the inhibition in vivo at 50 mg/kg stood at 40.7% and at 100 mg/kg the inhibition in vivo was 45.9%.

On to `Nc1nc(NC(=O)c2cccnc2)nc(-c2cc(F)ccc2F)n1` [Compound 27], for which the inhibition in vivo at 50 mg/kg was 51.2% and the inhibition in vivo at 100 mg/kg was determined as 53.6%.

In turn, `Nc1nc(NC(=O)c2cccnc2)nc(-c2ccc(Cl)cc2Br)n1` [Compound 28] gave an inhibition in vivo at 50 mg/kg of 42.8% and an inhibition in vivo at 100 mg/kg of 48.4%.

On to `Nc1nc(NC(=O)c2cccnc2)nc(-c2cc(Br)ccc2Cl)n1` [Compound 29], for which at 50 mg/kg the inhibition in vivo was 38.7% and testing at 100 mg/kg gave an inhibition in vivo of 49.2%.
